Results reported in patent publication US8969298B2, “Liquid preparation of physiologically active peptide” (Daiichi Sankyo Co., Ltd., priority 2004, dated 2015).

What was measured:
[1] = Pharmacokinetics of human ghrelin preparations intravenously, subcutaneously or intramuscularly administered to rats (plasma ghrelin by RIA); type: in vivo; conditions: s.c.
Description: 7-week old, male SD rats (Charles River Laboratories Japan Inc.) were used. A group of three rats was used for the tests. For intravenous administration, these animals each inserted a polyethylene tube (PE-50, Clay Adams Co., Ltd.) in the femoral artery were used. Preparation No. 2 was administered through the tail vain at a dose of 0.5 mL/kg by using a syringe and a 26 G needle (each available from Terumo Co., Ltd.). Blood samples were collected from the polyethylene tube in the femoral artery before administration and 1, 3, 5, 10, 20, 30, 60, and 90 minutes after administration.
Similarly, these animals inserted a polyethylene tube in the femoral artery were used for subcutaneous administration of Preparation No. 3 in the dorsal skin at a dose of 1 mL/kg using a syringe and a 26 G needle. Blood samples were collected from the polyethylene tube in the femoral artery before administration and 5, 10, 20, and 30 minutes after administration.
To each sample, one-hundredth as much of an EDTA.2Na.2H2O solution and one-fiftieth as much of an AEBSF solution were added immediately after collection of the sample. […]
The plasma samples were then analyzed for the ghrelin levels by radioimmunoassay (RIA) using an anti-ghrelin antibody. […] The supernatant was separated and analyzed for radioactivity by a γ-counter (Packard Instruments Co., Ltd.).
The results shown in FIG. 1 were used to determine the following pharmacokinetic parameters for each injection route: the maximum plasma ghrelin concentration (Cmax) and the time it took before the maximum plasma concentration was reached (T). […] Using the trapezoidal method, the area under the concentration curve (AUC) was also calculated for each injection route. […]
As with the examples of subcutaneous administration, these rats, inserted a polyethylene tube in the femoral artery, were intramuscularly administered Preparations No. 3 and No. 13 in the femoral muscle at a dose of 1 mL/kg, using a syringe and a 26 G needle. The blood samples were collected in the same manner as in Comparative Example 2 and the plasma ghrelin levels were measured by RIA method.

[2] = Pharmacokinetics of ghrelin preparations intravenously or subcutaneously administered to cynomolgus monkeys (plasma ghrelin by ELISA); conditions: cynomolgus monkey, in vivo, sc, read-out: BA of subcutaneously injected ghrelin
Description: Preparations No. 5 and No. 33 were subcutaneously administered to separate groups of cynomolgus monkeys and the plasma ghrelin levels were measured. Furthermore, Preparation No. 1 was intravenously administered to another group of cynomolgus monkeys. The plasma ghrelin levels were measured.
Each group consisted of three male monkeys (imported from China) aged 4 to 6 years. Preparations No. 5 and No. 33 were subcutaneously injected in the dorsal skin at a dose of 0.2 mL/body using a syringe and a 26 G needle (each available from Terumo Co., Ltd.).
Using a syringe and a 26 G needle (each available from Terumo Co., Ltd.), Preparation No. 1 was intravenously injected in the forearm vena cephalica at a dose of 2 mL/kg.
In each case, blood samples were collected from the forearm vena cephalica before administration and 5, 10, 15, 30, 40, 60, 90, and 120 minutes after administration. […]
The plasma samples were then analyzed for the ghrelin levels by Enzyme-Linked Immunosolvent Assay (ELISA) using Active Ghrelin ELISA Kit (Cat. No. MM-401, Mitsubishi Kagaku latron Inc.). […]
The results shown in FIG. 7 were used to determine Cmax and Tmax for each liquid preparation. Using the trapezoidal method, the AUC was also calculated for each preparation. […]

SMILES: CCCCCCCC(=O)OC[C@H](NC(=O)[C@H](CO)NC(=O)CN)C(=O)N[C@@H](Cc1ccccc1)C(=O)N[C@@H](CC(C)C)C(=O)N[C@@H](CO)C(=O)N1CCC[C@H]1C(=O)N[C@@H](CCC(=O)O)C(=O)N[C@@H](Cc1cnc[nH]1)C(=O)N[C@@H](CCC(N)=O)C(=O)N[C@@H](CCCNC(=N)N)C(=O)N[C@H](C(=O)N[C@@H](CCC(N)=O)C(=O)N[C@@H](CCC(N)=O)C(=O)N[C@@H](CCCNC(=N)N)C(=O)N[C@@H](CCCCN)C(=O)N[C@@H](CCC(=O)O)C(=O)N[C@@H](CO)C(=O)N[C@@H](CCCCN)C(=O)N[C@@H](CCCCN)C(=O)N1CCC[C@H]1C(=O)N1CCC[C@H]1C(=O)N[C@@H](C)C(=O)N[C@@H](CCCCN)C(=O)N[C@@H](CC(C)C)C(=O)N[C@@H](CCC(N)=O)C(=O)N1CCC[C@H]1C(=O)N[C@@H](CCCNC(=N)N)C(=O)O)C(C)C [ghrelin]
- BA of subcutaneously injected ghrelin [1]: at most 5%
- BA of ghrelin ([1]; mixed with sodium acetate buffer (pH 4.0)): 35.3%
- BA of ghrelin ([1]; mixed with urea as a solubilizing agent): 3.4%
- bioavailability [2]: ≤ 3%
